# In ChEMBL document CHEMBL3880390, “Agents for preventing and treating disorders involving modulation of the RYR receptors” (2014):
# pEC50: −log10 of the molar value. Calls of active or inactive are those of the source. No cut-off for these calls is given here.
# Key:
# Ryanodine receptor 2 [1] = biological target: T1, Ryanodine receptor 2 (Homo sapiens, UniProt Q92736); assay: Induction of FKBP12.6 re-binding to PKA-phosphorylated-RyR2 (unknown origin) after 30 mins in presence of [35S]-FKBP12.6 by liquid scintillation counting
# T1 sequence (Q92736 whole entry): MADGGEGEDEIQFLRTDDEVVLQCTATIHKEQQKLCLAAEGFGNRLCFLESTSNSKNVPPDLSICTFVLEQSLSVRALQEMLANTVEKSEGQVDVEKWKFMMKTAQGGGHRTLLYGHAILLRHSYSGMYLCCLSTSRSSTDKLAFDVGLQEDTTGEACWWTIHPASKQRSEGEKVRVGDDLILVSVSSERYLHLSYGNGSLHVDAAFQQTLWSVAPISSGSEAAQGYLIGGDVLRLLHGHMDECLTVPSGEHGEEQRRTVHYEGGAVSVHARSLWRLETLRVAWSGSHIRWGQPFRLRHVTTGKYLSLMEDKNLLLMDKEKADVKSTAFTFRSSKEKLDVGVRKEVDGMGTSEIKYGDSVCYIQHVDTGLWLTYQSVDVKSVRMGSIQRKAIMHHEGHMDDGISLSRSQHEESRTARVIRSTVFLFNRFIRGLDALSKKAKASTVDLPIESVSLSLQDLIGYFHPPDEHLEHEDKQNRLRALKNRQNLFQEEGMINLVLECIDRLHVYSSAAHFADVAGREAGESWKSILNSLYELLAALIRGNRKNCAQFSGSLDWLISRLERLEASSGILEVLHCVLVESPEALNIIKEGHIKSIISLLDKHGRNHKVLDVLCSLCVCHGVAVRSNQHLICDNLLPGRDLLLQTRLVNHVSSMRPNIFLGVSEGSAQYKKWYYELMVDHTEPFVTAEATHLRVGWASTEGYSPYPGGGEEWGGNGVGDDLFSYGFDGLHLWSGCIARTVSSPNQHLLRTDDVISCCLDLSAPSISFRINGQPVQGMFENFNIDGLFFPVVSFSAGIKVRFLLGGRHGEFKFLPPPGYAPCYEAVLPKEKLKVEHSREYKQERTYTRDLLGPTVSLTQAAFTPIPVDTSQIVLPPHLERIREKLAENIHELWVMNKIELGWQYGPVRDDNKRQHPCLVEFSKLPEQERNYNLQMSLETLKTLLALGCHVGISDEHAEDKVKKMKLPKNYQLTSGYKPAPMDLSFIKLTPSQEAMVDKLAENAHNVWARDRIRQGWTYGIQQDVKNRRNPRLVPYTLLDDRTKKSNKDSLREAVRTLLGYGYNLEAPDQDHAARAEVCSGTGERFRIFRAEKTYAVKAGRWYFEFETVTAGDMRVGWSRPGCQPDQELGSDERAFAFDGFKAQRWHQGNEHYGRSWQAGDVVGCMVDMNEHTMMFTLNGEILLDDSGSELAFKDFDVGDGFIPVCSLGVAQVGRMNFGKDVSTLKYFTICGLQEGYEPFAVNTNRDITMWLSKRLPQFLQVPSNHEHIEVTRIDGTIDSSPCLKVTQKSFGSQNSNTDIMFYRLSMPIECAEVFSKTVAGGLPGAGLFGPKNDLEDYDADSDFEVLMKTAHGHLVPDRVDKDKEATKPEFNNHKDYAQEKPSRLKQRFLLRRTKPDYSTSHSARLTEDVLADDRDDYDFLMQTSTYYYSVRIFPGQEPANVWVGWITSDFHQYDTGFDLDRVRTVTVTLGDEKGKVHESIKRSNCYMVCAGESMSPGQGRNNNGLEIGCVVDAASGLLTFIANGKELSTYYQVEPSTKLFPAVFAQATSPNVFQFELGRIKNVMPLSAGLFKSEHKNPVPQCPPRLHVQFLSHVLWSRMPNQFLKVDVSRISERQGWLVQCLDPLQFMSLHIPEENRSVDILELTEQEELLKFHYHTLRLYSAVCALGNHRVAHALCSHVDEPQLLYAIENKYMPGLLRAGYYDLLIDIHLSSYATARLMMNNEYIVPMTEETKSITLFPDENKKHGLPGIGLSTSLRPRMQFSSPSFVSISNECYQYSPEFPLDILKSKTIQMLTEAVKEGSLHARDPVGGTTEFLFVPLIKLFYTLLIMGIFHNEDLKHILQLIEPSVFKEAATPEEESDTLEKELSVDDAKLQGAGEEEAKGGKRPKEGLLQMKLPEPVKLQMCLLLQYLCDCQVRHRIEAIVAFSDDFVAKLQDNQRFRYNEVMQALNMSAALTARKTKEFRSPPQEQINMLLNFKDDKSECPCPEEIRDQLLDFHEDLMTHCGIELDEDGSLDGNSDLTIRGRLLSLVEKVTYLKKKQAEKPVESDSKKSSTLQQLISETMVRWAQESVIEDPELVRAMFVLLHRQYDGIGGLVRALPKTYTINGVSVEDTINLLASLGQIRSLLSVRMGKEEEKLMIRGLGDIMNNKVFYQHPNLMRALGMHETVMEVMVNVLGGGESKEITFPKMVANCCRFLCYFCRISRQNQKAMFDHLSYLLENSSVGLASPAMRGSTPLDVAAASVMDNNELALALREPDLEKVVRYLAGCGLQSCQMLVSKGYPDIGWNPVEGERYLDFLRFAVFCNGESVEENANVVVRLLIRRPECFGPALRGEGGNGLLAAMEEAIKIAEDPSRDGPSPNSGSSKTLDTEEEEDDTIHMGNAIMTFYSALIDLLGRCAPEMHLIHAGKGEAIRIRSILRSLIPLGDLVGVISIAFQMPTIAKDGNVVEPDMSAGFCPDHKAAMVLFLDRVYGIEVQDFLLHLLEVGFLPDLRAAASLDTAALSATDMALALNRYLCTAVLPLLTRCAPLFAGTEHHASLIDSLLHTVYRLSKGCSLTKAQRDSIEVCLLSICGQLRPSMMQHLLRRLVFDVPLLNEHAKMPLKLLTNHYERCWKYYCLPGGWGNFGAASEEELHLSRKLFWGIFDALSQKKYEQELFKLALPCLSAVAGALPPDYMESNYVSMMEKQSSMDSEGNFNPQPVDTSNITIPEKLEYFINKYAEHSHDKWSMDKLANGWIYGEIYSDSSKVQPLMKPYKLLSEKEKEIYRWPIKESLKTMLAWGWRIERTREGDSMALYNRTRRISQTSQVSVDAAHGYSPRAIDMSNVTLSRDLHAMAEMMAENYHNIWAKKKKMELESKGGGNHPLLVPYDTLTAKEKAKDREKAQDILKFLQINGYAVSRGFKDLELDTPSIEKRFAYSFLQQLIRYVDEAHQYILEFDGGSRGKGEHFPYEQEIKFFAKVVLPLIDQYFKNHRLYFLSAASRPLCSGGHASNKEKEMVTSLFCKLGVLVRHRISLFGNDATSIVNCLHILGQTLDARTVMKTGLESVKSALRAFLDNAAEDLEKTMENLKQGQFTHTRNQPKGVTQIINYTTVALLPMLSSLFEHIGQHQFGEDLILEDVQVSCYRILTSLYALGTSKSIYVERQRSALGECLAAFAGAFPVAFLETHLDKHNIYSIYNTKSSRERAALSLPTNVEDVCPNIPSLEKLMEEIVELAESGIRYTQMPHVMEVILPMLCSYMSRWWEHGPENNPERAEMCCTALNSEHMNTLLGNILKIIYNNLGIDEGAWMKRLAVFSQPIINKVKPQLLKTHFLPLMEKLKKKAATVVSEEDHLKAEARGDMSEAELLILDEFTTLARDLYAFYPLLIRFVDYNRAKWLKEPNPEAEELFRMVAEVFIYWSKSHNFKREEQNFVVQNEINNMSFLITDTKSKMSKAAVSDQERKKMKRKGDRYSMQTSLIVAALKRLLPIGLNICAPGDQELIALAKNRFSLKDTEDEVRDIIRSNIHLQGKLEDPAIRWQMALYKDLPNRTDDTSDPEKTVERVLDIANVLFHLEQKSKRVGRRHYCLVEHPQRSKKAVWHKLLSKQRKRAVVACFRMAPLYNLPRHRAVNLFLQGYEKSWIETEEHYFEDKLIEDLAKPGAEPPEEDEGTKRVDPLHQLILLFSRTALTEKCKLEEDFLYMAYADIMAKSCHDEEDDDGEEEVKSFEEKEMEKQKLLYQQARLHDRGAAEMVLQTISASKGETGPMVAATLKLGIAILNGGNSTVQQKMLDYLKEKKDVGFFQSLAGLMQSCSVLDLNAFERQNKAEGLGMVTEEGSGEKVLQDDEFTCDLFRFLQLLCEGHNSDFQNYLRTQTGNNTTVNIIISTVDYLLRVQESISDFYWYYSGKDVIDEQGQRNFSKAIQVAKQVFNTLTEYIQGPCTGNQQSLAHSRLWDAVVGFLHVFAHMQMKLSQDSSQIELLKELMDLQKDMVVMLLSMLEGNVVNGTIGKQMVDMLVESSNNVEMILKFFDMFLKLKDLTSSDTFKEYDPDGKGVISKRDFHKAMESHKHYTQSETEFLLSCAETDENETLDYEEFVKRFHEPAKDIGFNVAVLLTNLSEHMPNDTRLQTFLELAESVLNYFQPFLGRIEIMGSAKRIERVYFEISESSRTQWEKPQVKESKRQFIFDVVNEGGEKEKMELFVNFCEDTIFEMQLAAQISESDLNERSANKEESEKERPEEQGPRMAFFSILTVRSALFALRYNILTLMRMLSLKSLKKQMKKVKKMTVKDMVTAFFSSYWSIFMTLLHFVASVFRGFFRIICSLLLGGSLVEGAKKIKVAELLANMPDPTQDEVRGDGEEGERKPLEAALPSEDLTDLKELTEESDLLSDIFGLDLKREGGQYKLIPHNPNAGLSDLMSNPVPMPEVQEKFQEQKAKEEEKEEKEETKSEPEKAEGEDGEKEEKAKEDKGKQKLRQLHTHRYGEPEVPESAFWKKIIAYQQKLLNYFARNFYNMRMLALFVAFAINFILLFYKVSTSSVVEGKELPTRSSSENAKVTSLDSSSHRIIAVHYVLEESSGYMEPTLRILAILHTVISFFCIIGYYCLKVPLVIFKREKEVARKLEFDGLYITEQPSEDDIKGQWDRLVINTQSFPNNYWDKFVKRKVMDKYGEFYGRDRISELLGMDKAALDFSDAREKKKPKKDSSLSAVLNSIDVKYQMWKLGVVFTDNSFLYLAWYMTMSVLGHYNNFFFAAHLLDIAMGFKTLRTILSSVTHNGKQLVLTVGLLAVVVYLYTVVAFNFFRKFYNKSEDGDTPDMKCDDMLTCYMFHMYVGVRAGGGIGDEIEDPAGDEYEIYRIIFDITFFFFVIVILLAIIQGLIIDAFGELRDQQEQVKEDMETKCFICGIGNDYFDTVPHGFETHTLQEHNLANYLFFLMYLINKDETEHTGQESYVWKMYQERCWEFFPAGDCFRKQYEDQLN
# hERG (KCNH2) [2] = biological target: T2, hERG (KCNH2) (Homo sapiens, UniProt Q12809); assay: Inhibition of human ERG expressed in HEK293 cells at 0.01 uM after 5 mins at -80 mV holding potential by patch clamp assay; format: cell-based; conditions: HEK293 cells expressing human ERG
# hERG (KCNH2) [3] = biological target: T2, hERG (KCNH2); assay: Inhibition of human ERG expressed in HEK293 cells at 0.1 uM after 5 mins at -80 mV holding potential by patch clamp assay; format: cell-based; conditions: HEK293 cells expressing human ERG
# hERG (KCNH2) [4] = biological target: T2, hERG (KCNH2); assay: Inhibition of human ERG expressed in HEK293 cells at 1 uM after 5 mins at -80 mV holding potential by patch clamp assay; format: cell-based; conditions: HEK293 cells expressing human ERG
# hERG (KCNH2) [5] = biological target: T2, hERG (KCNH2); assay: Inhibition of human ERG expressed in HEK293 cells at 10 uM after 5 mins at -80 mV holding potential by patch clamp assay; format: cell-based; conditions: HEK293 cells expressing human ERG
# Ryanodine receptor 2 [6] = biological target: T1, Ryanodine receptor 2; assay: Induction of FKBP12.6 re-binding to PKA-phosphorylated-RyR2 (unknown origin) at 10 to 1000 nM after 30 mins in presence of [35S]-FKBP12.6 by liquid scintillation counting
# Mus musculus [7] = assay: Antiarrhythmic activity in haploinsufficient FKBP12.6 expressing mouse assessed as plasma concentration showing prevention of sudden cardiac death dosed via osmotic mini-pump under testing exercise followed by epinephrine injection relative to control; format: functional, organism-based
# Mus musculus [8] = assay: Antiarrhythmic activity in haploinsufficient FKBP12.6 expressing mouse assessed as plasma concentration showing prevention of cardiac arrhythmias dosed via osmotic mini-pump under testing exercise followed by epinephrine injection relative to control; format: functional, organism-based
# Mus musculus [9] = species: Mus musculus; assay: Induction of cardiac function improvement in myocardial infarction-induced acute heart failure mouse model at plasma concentration 200 nM after 7 days post myocardial infarction; format: functional
# Mus musculus [10] = species: Mus musculus; assay: Induction of cardiac function improvement in myocardial infarction-induced acute heart failure mouse model subjected to permanent ligation of left anterior descending coronary artery assessed as increase in fractional shortening at plasma concentration of 100 to 200 nM after 2 weeks post myocardial infarction by echocardiography; format: functional
# Mus musculus [11] = species: Mus musculus; assay: Induction of cardiac function improvement in myocardial infarction-induced acute heart failure mouse model subjected to permanent ligation of left anterior descending coronary artery assessed as increase in cardiac contractility at plasma concentration 200 nM after 7 days post myocardial infarction; format: functional
# Ryanodine receptor 2 [12] = biological target: T1, Ryanodine receptor 2; assay: Induction of normalization of single channel closed state of PKA phosphorylated RyR2 P2328S mutant (unknown origin) assessed as channel open probability level at 0.1 umol/L (reference value: 14.4%)
# Ryanodine receptor 2 [13] = biological target: T1, Ryanodine receptor 2; assay: Induction of normalization of single channel closed state of wild type PKA phosphorylated RyR2 (unknown origin) assessed as channel open probability at 0.1 umol/L relative to control
# Mus musculus [14] = species: Mus musculus; assay: Antiarrhythmic activity in haploinsufficient FKBP12.6 expressing mouse assessed as reduction in sustained ventricular tachycardia at 0.2 to 1 uM under testing exercise followed by epinephrine injection relative to control; format: functional
# Ryanodine receptor 2 [15] = biological target: T1, Ryanodine receptor 2; assay: Induction of calstabin-2 binding to RyR2 P2328S mutant (unknown origin) at 0.1 umol/L
# [16] = Cardiotoxicity in haploinsufficient FKBP12.6 expressing mouse assessed as reduction in non-sustained ventricular tachycardia at 0.2 to 1 uM under testing exercise followed by epinephrine injection relative to control; format: toxicity; conditions: in vivo
pEC50 (Ryanodine receptor 2 [1]),SMILES,"inhibition at 5 min, 0.01 µM (hERG (KCNH2) [2]) [%]","inhibition at 5 min, 0.1 µM (hERG (KCNH2) [3]) [%]","inhibition at 5 min, 1 µM (hERG (KCNH2) [4]) [%]","inhibition at 5 min, 10 µM (hERG (KCNH2) [5]) [%]",further results
7.30,C=CC(=O)N1CCSc2ccc(OC)cc2C1,,,,,
,COc1ccc2c(c1)CN(C(=O)C(=O)O)CCS2 [ALADORIAN SODIUM],0.2,6,5.5,6.7,
7.00,c1ccc2c(c1)CNCCS2,,,,,
,COc1ccc2c(c1)CN(C(=O)N1CCN(Cc3ccc4c(c3)OCO4)CC1)CCS2,2.7,9.7,29.6,78,
,COc1ccc2c(c1)CN(C(=O)c1ccc(N=[N+]=[N-])cc1O)CCS2,1.3,3.6,4.1,14,
,COc1ccc2c(c1)CN(C(=O)C(=O)O)CCS2,,,,,Activity (Ryanodine receptor 2 [6]): Active; Cp (Mus musculus [7]): 0.02 to 1 µM; Cp (Mus musculus [8]): 0.02 to 1 µM; Activity (Mus musculus [9]): Active; Activity (Mus musculus [10]): Active; Activity (Mus musculus [11]): Active; Activity (Ryanodine receptor 2 [12]): 0.3%; Activity (Ryanodine receptor 2 [13]): Active; Activity (Mus musculus [14]): Active; Activity (Ryanodine receptor 2 [15]): Active
,COc1ccc2c(c1)CN(C(=O)C(=O)O)CCS2 [ALADORIAN],,,,,Activity [16]: Non-Toxic
,O=C(N1CCCCC1)N1CCSc2ccccc2C1,2.5,4.2,5.7,47.3,
,COC(=O)C(=O)N1CCSc2ccc(OC)cc2C1,0.2,7.3,2.7,13.6,

SMILES,pEC50 (Ryanodine receptor 2 [1]),"inhibition at 5 min, 0.01 µM (hERG (KCNH2) [2]) [%]","inhibition at 5 min, 0.1 µM (hERG (KCNH2) [3]) [%]","inhibition at 5 min, 1 µM (hERG (KCNH2) [4]) [%]","inhibition at 5 min, 10 µM (hERG (KCNH2) [5]) [%]",further results
COc1ccc2c(c1)CN([P@](=O)(OC)c1ccccc1)CCS2,6.74,,,,,
